For the assay, the target named is T1, KDR receptor (VEGFR2) (Homo sapiens, UniProt P35968).
T1 construct: expressed in transfected cells; host or cells: heparan sulfate deficient Chinese hamster ovary cells (CHOm VEGFR2), VEGFR2 cDNA in psV-7d vector
Put plainly: Inhibition of 125I-VEGF binding to KDR receptor on CHOm VEGFR2 cells. Particulars: for inhibiting binding of VEGF to the KDR receptor (in words): 125I-VEGF. As for the experimental part:
The P1 to P24 peptides are tested as concerns their property of inhibition of the binding of VEGF to its KDR receptor.
For these tests, heparin sulfate deficient Chinese hamster ovarian cells that are transfected with an expression vector containing VEGFR2cDnA (CHOm VEGFR2 cells) are used.
The CHOm VEGFR2 cells are routinely cultured in Dulbecco modified Eagle medium and supplemented with 10% (v/v) fetal calf serum (FCS), 50 U/ml penicillin, 50 μg/ml streptomycin, 1 mg/ml glucose and 2 mM L-glutamine at 37° C. in a 5% CO2 atmosphere.
The subconfluent flasks are transferred at 4° C. […] At the end of the incubation period, the cells are washed 3 times using iced PBS and solubized in 1 mL of buffer with 2% Triton X 100, 10% glycol, 1 mg/mL bovine serum albumin BSA. The radioactivity rate bound to the cells is counted in an MR-250 Kontron gamma counter. […] Specific binding is calculated by subtracting non-specific binding from total binding.
These assays are continued using the cyclopeptides of interest and two linear peptides as controls for an inhibition analysis as a function of dose.

Where [1] appears, read: CHOm VEGFR2 cells, 5 ng/mL 125I-VEGF, 2 hours at 4° C.

This is an account of results in US7199100B2, “Cyclic peptides, method for preparing and use as angiogenesis inhibitors or activator” (Commissariat a l'Energie Atomique, priority 2000, dated 2007).

Where two headings read alike, the source gives them in different places. Square brackets hold non-standard residues; d marks the D form. Peptide text beside a SMILES is read from it. * marks the point of attachment. OAll = C=CCO*

T1 sequence (P35968 20-1356, species assumed): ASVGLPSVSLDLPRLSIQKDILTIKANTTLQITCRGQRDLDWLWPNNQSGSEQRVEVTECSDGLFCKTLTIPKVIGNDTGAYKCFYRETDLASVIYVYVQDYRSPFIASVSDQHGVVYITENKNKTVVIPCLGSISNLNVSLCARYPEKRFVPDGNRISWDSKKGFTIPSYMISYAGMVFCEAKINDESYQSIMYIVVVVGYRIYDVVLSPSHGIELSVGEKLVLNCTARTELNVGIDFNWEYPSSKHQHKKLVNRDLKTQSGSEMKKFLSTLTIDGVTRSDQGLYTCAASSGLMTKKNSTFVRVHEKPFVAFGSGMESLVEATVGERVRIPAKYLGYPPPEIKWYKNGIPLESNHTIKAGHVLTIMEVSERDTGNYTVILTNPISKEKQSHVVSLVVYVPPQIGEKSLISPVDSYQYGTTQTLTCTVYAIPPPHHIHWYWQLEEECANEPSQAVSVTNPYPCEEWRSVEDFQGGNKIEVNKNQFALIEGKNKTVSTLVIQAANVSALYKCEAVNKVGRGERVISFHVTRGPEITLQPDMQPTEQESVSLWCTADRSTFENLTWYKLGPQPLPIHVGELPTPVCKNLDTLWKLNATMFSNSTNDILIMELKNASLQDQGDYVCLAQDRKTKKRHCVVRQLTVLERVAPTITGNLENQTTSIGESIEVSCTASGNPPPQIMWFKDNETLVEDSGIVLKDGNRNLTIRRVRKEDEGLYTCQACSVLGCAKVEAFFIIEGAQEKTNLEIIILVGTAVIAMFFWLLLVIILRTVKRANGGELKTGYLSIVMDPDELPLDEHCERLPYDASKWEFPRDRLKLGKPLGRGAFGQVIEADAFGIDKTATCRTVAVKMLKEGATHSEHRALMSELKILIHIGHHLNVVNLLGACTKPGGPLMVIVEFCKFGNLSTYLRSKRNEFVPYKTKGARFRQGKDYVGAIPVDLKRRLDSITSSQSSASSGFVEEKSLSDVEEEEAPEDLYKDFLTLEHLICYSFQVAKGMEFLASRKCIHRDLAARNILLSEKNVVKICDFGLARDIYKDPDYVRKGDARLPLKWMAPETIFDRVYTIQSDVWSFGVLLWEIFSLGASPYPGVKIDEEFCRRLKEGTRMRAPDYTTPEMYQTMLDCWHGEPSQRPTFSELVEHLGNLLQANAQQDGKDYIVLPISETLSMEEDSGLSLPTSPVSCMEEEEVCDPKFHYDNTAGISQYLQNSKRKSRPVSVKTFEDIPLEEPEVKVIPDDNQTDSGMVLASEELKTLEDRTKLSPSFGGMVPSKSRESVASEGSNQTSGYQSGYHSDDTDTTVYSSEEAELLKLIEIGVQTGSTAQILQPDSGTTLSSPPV

Usually IC50 stands for the concentration at which inhibition is half-maximal. Read a high IC50 as lower potency. `CC[C@H](C)[C@H](NC(=O)[C@H](CCCNC(=N)N)NC(=O)CN)C(=O)N[C@@H](CCCCN)C(=O)N1CCC[C@@H]1C(=O)N[C@@H](Cc1c[nH]cn1)C(=O)N[C@@H](CCC(N)=O)C(=O)NCC(=O)N[C@@H](CCC(N)=O)C(=O)N[C@@H](Cc1c[nH]cn1)C(=O)O` [Peptide P6, H-Gly-Arg-Ile-Lys-DPro-His-Gln-Gly-Gln-His-OH] (H-GRIK[dP]HQGQH-OH) came in with a half-maximal inhibitory concentration (IC50) of over 300 µM.
`CC[C@H](C)[C@@H]1NC(=O)[C@H](CCCNC(=N)N)NC(=O)CNC(=O)[C@H](Cc2c[nH]cn2)NC(=O)[C@H](CCC(N)=O)NC(=O)CNC(=O)[C@H](CCC(N)=O)NC(=O)[C@H](Cc2c[nH]cn2)NC(=O)[C@H]2CCCN2C(=O)[C@H](CCCCN)NC1=O` [Peptide P7, cyclo(Gly-Arg-Ile-Lys-DPro-His-Gln-Gly-Gln-His)] (cyclo(GQHGRIK[dP]HQ)) showed an IC50 of over 300 µM.
`CC[C@H](C)[C@@H]1NC(=O)[C@H](CCCNC(=N)N)NC(=O)CNC(=O)[C@H](Cc2c[nH]cn2)NC(=O)CNC(=O)[C@H](CCC(N)=O)NC(=O)[C@H](Cc2c[nH]cn2)NC(=O)[C@@H]2CCCN2C(=O)[C@H](CCCCN)NC1=O` [Peptide P8] (cyclo(GRIKPHQGH)) yielded a half-inhibitory concentration (IC50) under setting [1] of 200 µM.
Compound `CC[C@H](C)[C@@H]1NC(=O)[C@H](CCCNC(=N)N)NC(=O)[C@@H]2CCCN2C(=O)[C@H](Cc2c[nH]cn2)NC(=O)[C@H](CCC(N)=O)NC(=O)CNC(=O)[C@H](CCC(N)=O)NC(=O)[C@H](Cc2c[nH]cn2)NC(=O)[C@@H]2CCCN2C(=O)[C@H](CCCCN)NC1=O` [Peptide P9] (cyclo(GQHPRIKPHQ)) came in with an IC50 of 300 µM.
Turning to `C=CCOC(=O)[C@H](CCC(=O)O)NC(=O)CNC(=O)[C@@H](NC(=O)[C@H](Cc1c[nH]cn1)NC(=O)[C@H](CCC(N)=O)NC(=O)CNC(=O)[C@H](CCC(N)=O)NC(=O)[C@H](Cc1c[nH]cn1)NC(=O)[C@@H]1CCCN1C(=O)[C@H](CCCCN)NC(=O)[C@@H](NC(=O)[C@H](CCCNC(=N)N)NC(=O)[C@H](CCSC)NC(=O)[C@@H](NC(=O)[C@@H](N)CCC(N)=O)[C@@H](C)CC)[C@@H](C)CC)[C@@H](C)CC` [Peptide P10] (H-QIMRIKPHQGQHIGE-OAll), the concentration for half-maximal inhibition (IC50) is over 300 µM.
`CC[C@H](C)[C@@H]1NC(=O)[C@H](Cc2c[nH]cn2)NC(=O)[C@H](CCC(N)=O)NC(=O)CNC(=O)[C@H](CCC(N)=O)NC(=O)[C@H](Cc2c[nH]cn2)NC(=O)[C@@H]2CCCN2C(=O)[C@H](CCCCN)NC(=O)[C@H]([C@@H](C)CC)NC(=O)[C@H](CCCNC(=N)N)NC(=O)[C@H](CCSC)NC(=O)[C@H]([C@@H](C)CC)NC(=O)[C@H](CCC(N)=O)NC(=O)CNC(=O)[C@H](CCC(=O)O)NC(=O)CNC1=O` [Peptide P12] (cyclo(EGQIMRIKPHQGQHIG)) displayed a 50% inhibitory concentration (IC50) of 300 µM.
Compound `CC[C@H](C)[C@@H]1NC(=O)[C@H](Cc2c[nH]cn2)NC(=O)[C@H](CCC(N)=O)NC(=O)CNC(=O)[C@H](CCC(N)=O)NC(=O)[C@H](Cc2c[nH]cn2)NC(=O)[C@@H]2CCCN2C(=O)[C@H](CCCCN)NC(=O)[C@H]([C@@H](C)CC)NC(=O)[C@H](CCCNC(=N)N)NC(=O)[C@H](CCSC)NC(=O)[C@H]([C@@H](C)CC)NC(=O)[C@H](CCC(N)=O)NC(=O)[C@@H]2CCCN2C(=O)[C@H](CCC(=O)O)NC(=O)CNC1=O` [Peptide P13] (cyclo(EPQIMRIKPHQGQHIG)) showed an IC50 of over 300 µM.
As to `CC[C@H](C)[C@@H]1NC(=O)[C@H](CCCNC(=N)N)NC(=O)CNC(=O)[C@H](CCC(N)=O)NC(=O)[C@H](Cc2c[nH]cn2)NC(=O)[C@@H]2CCCN2C(=O)[C@H](CCCCN)NC1=O` [Peptide P16, cyclo(Arg-Ile-Lys-Pro-His-Gln-Gly)] (cyclo(RIKPHQG)), the “inhibiting binding of VEGF to the KDR receptor (in words)” value (“inhibiting binding of VEGF” for short) (CHOm VEGFR2 cells) is given as “very effective”.
`CC[C@H](C)[C@@H]1NC(=O)[C@H](CCCNC(=N)N)NC(=O)[C@@H]2CCCN2C(=O)CNC(=O)[C@H](CCC(N)=O)NC(=O)[C@H](Cc2c[nH]cn2)NC(=O)[C@@H]2CCCN2C(=O)[C@H](CCCCN)NC1=O` [Peptide P17] (cyclo(PRIKPHQG)) displayed an IC50 of 10 µM. Under “CHOm VEGFR2 cells”, the “inhibiting binding of VEGF” value is reported as “very effective”.
Consider `CC[C@H](C)[C@@H]1NC(=O)[C@H](Cc2c[nH]cn2)NC(=O)[C@H](CCC(N)=O)NC(=O)CNC(=O)[C@H](CCC(N)=O)NC(=O)[C@H](Cc2c[nH]cn2)NC(=O)[C@@H]2CCCN2C(=O)[C@H](CCCCN)NC(=O)[C@H]([C@@H](C)CC)NC(=O)[C@H](CCCNC(=N)N)NC(=O)[C@H](CCSC)NC(=O)[C@H]([C@@H](C)CC)NC(=O)[C@H](CCC(N)=O)NC(=O)[C@H](CCC(=O)O)NC(=O)CNC1=O` [Peptide P19] (cyclo(QIMRIKPHQGQHIGE)), for which the “inhibiting binding of VEGF” value (CHOm VEGFR2 cells) is given as “very effective”.
On to `CC[C@H](C)[C@@H]1NC(=O)[C@H](Cc2c[nH]cn2)NC(=O)[C@H](CCC(N)=O)NC(=O)CNC(=O)[C@H](CCC(N)=O)NC(=O)[C@H](Cc2c[nH]cn2)NC(=O)[C@@H]2CCCN2C(=O)[C@H](CCCCN)NC(=O)[C@H]([C@@H](C)CC)NC(=O)[C@H](CCCNC(=N)N)NC(=O)[C@H](CCSC)NC(=O)[C@H]([C@@H](C)CC)NC(=O)[C@H](CCC(N)=O)NC(=O)[C@@H]2CCCN2C(=O)[C@@H](Cc2ccccc2)NC(=O)CNC1=O` [Peptide P20] (cyclo([dF]PQIMRIKPHQGQHIG)), for which the IC50 is 10 µM. In addition, the “inhibiting binding of VEGF” value (CHOm VEGFR2 cells) was “very effective”.
Consider `CC[C@H](C)[C@@H]1NC(=O)[C@H](CCCNC(=N)N)NC(=O)[C@H](CCSC)NC(=O)[C@H]([C@@H](C)CC)NC(=O)[C@@H]2CCCN2C(=O)[C@@H](Cc2ccccc2)NC(=O)[C@H]([C@@H](C)CC)NC(=O)[C@H](Cc2c[nH]cn2)NC(=O)[C@H](CCC(N)=O)NC(=O)CNC(=O)[C@H](CCC(N)=O)NC(=O)[C@H](Cc2c[nH]cn2)NC(=O)[C@@H]2CCCN2C(=O)[C@H](CCCCN)NC1=O` [Peptide P21] (cyclo(GQHI[dF]PIMRIKPHQ)), for which the IC50 came out at 200 µM.
Turning to `CC[C@H](C)[C@@H]1NC(=O)[C@H](CCC(N)=O)NC(=O)[C@H](CCC(=O)O)NC(=O)[C@H](CCC(N)=O)NC(=O)[C@H](Cc2c[nH]cn2)NC(=O)[C@@H]2CCCN2C(=O)[C@H](CCCCN)NC(=O)[C@H]([C@@H](C)CC)NC(=O)[C@H](CCCNC(=N)N)NC(=O)[C@H](CCSC)NC1=O` [Peptide P22, reference compound] (cyclo(EQIMRIKPHQ)), the IC50 was over 300 µM.
Turning to `CC[C@H](C)[C@@H]1NC(=O)[C@H](CCCNC(=N)N)NC(=O)[C@@H]2CCCN2C(=O)[C@@H](Cc2ccc(O)cc2)NC(=O)[C@H](CCC(N)=O)NC(=O)[C@H](Cc2c[nH]cn2)NC(=O)[C@@H]2CCCN2C(=O)[C@H](CCCCN)NC1=O` [Peptide P23] (cyclo([dY]PRIKPHQ)), for the setting “CHOm VEGFR2 cells”, the “inhibiting binding of VEGF” value is listed as “very effective”.
The compound `CC[C@H](C)[C@@H]1NC(=O)[C@H](CCCNC(=N)N)NC(=O)CNC(=O)[C@H](Cc2c[nH]cn2)NC(=O)[C@@H]2CCCN2C(=O)[C@H](CCCCN)NC1=O` [Peptide P24, cyclo(Gly-Arg-Ile-Lys-Pro-His)] (cyclo(GRIKPH)) came in with a 50% inhibitory concentration (IC50) under setting [1] of 8 µM. In addition, for the setting “CHOm VEGFR2 cells”, the “inhibiting binding of VEGF” value is reported as “very effective”.
In the case of H-GQIMRIKPHQGQHIGE-OH [Peptide P15], the concentration for half-maximal inhibition (IC50) was over 300 µM.
H-PQIMRIKPHQGQHIGE-OH [Peptide P14]: the IC50 was over 300 µM.
H-QIMRIKPH-OH [Peptide P2] had an IC50 of over 300 µM.
Turning to H-QIMRIKPHQGQHIG-OH [Peptide P5], the IC50 was over 300 µM.
H-QIMRIKPHQGQHIGE-OH [Peptide P4] gave an IC50 of over 300 µM.
Under setting [1], “H-RIKPH-OH [Peptide P1, H-Arg-Ile-Lys-Pro-His-OH]” had a half-inhibitory concentration (IC50) of over 300 µM.
In turn, “H-RIKPHQG-OH [Peptide P3, H-Arg-Ile-Lys-Pro-His-Gln-Gly-OH]” showed a concentration for half-maximal inhibition (IC50) of over 300 µM.
